Experimental data: US8415469B2, “Compounds and methods for kinase modulation, and indications therefor” (Plexxikon Inc., priority 2005, dated 2013)

Key:
Format in all cases: biochemical
[1] = biological target: T1, Jak3 (Homo sapiens, UniProt P52333); test: AlphaScreen kinase assay, Jak3; settings: read-out: IC50, activity toward kinase Jak3
T1 sequence (P52333 1-1124): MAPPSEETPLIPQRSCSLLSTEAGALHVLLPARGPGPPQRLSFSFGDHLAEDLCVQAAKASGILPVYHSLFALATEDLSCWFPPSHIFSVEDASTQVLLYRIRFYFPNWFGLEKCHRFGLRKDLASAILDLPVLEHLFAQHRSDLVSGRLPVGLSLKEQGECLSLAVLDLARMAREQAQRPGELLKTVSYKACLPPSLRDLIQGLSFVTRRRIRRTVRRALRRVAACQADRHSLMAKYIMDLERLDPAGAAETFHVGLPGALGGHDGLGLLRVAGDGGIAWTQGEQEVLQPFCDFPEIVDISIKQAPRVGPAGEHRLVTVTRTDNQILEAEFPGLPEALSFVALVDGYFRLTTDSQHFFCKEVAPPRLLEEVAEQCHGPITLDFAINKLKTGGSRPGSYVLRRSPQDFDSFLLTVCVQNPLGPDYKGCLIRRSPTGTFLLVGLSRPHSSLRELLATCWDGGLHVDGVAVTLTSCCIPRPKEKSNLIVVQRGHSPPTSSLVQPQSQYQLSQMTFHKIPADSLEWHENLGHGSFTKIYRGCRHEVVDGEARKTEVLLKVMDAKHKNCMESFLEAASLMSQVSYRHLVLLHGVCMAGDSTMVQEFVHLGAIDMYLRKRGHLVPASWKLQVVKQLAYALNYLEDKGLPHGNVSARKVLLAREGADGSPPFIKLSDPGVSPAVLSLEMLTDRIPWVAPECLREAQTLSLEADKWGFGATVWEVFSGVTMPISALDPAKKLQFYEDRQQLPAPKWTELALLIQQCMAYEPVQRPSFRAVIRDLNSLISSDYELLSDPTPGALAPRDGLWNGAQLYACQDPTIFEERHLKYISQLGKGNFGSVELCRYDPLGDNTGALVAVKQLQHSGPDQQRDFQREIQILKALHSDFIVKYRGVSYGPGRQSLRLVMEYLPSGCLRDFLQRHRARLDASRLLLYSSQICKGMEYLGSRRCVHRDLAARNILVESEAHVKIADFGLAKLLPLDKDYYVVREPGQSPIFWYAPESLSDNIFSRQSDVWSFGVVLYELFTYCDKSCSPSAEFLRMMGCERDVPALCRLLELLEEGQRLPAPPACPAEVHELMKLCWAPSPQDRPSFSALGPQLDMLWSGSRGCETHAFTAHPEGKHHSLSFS
In short: (§1)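 Inhibition reads as diminished acceptor emission, since unphosphorylated peptide fails to bridge antibody acceptor beads and streptavidin donor beads. Titration: eight points, 1:3 steps, stocks at 20 mM in DMSO.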

[2] = biological target: T2, MAP2K1 (Homo sapiens, UniProt Q02750); test: Z'-Lyte FRET kinase assay (Invitrogen), MAP2K1; settings: read-out: IC50, activity toward kinase MAP2K1
T2 construct: purchased Invitrogen (assay run by Invitrogen)

[3] = biological target: T3, Pyk2 (Homo sapiens, UniProt Q14289); test: AlphaScreen kinase assay, Pyk2; settings: read-out: IC50, activity toward kinase Pyk2
T3 construct: purchased Upstate Biotechnology

[4] = biological target: T4, Itk (Homo sapiens, UniProt Q08881); test: AlphaScreen kinase assay, Itk; settings: read-out: IC50, activity toward kinase Itk
T4 sequence (Q08881 1-620): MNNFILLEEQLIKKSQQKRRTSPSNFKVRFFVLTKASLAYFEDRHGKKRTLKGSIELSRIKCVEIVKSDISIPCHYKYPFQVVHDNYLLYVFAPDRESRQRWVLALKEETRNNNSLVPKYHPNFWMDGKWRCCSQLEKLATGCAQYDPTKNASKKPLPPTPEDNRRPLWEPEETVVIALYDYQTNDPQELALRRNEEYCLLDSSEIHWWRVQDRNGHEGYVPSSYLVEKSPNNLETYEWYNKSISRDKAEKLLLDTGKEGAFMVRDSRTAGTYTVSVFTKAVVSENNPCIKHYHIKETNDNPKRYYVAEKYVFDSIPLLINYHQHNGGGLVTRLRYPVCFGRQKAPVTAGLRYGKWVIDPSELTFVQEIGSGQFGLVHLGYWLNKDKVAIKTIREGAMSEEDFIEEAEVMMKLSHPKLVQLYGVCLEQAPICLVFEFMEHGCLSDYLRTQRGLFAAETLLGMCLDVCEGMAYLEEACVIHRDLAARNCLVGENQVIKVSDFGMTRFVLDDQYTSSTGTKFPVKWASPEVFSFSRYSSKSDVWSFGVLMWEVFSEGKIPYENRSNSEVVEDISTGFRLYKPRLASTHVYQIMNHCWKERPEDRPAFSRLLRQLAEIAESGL
In short: as §1

[5] = biological target: T5, Flt1 (Homo sapiens, UniProt P17948); test: AlphaScreen kinase assay, Flt1; settings: read-out: IC50, activity toward kinase Flt1
T5 construct: P1826.pETN6 BI-PTP FLT1 M799-D1165-X WT; His6 (N); made in house; host or cells: E. coli (PTP1B co-expressed)
T5 sequence (P17948 with tags, fused parts or gaps): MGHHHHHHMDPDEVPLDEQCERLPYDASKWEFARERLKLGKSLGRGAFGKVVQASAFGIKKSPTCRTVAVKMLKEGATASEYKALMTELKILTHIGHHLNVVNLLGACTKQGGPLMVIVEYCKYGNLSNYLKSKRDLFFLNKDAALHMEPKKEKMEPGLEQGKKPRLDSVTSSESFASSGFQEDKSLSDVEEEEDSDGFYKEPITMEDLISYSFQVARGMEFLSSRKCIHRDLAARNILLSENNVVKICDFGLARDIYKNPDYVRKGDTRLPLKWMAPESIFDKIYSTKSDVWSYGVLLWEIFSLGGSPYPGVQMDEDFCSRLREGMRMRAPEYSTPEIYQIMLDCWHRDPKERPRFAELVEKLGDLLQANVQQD

[6] = biological target: T6, Jnk2 (Homo sapiens, UniProt P45984); test: AlphaScreen kinase assay, Jnk2; settings: read-out: IC50, activity toward kinase Jnk2
T6 construct: purchased Roche Protein Expression Group (Indianapolis, IN)
In short: as §1

[7] = biological target: T7, Flt4 (Homo sapiens, UniProt P35916); test: AlphaScreen kinase assay, Flt4; settings: read-out: IC50, activity toward kinase Flt4
T7 construct: purchased ProQinase GmbH (Freiburg, Germany)
In short: as §1

T6 sequence (P45984 whole entry): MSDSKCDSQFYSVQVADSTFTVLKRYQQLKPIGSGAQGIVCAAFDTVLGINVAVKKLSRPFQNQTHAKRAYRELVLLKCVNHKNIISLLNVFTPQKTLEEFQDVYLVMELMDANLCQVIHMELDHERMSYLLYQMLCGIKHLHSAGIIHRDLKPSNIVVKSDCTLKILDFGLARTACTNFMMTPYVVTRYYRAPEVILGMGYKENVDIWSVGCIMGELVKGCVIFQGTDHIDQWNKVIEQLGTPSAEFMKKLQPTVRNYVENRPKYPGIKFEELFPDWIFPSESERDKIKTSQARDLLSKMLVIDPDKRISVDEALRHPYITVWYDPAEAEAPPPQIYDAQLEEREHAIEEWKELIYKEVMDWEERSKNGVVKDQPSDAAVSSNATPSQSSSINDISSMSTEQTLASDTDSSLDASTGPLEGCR
T2 sequence (Q02750 whole entry): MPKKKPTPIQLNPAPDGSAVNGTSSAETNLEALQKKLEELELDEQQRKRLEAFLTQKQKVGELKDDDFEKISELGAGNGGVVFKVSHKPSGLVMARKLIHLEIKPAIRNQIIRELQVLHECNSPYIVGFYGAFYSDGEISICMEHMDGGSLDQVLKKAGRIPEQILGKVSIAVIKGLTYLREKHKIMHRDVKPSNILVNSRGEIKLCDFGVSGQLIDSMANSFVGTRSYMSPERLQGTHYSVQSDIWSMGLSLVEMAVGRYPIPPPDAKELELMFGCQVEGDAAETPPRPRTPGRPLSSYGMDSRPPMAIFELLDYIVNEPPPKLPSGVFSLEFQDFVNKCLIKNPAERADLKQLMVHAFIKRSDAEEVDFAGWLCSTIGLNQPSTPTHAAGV
T7 sequence (P35916 25-1363): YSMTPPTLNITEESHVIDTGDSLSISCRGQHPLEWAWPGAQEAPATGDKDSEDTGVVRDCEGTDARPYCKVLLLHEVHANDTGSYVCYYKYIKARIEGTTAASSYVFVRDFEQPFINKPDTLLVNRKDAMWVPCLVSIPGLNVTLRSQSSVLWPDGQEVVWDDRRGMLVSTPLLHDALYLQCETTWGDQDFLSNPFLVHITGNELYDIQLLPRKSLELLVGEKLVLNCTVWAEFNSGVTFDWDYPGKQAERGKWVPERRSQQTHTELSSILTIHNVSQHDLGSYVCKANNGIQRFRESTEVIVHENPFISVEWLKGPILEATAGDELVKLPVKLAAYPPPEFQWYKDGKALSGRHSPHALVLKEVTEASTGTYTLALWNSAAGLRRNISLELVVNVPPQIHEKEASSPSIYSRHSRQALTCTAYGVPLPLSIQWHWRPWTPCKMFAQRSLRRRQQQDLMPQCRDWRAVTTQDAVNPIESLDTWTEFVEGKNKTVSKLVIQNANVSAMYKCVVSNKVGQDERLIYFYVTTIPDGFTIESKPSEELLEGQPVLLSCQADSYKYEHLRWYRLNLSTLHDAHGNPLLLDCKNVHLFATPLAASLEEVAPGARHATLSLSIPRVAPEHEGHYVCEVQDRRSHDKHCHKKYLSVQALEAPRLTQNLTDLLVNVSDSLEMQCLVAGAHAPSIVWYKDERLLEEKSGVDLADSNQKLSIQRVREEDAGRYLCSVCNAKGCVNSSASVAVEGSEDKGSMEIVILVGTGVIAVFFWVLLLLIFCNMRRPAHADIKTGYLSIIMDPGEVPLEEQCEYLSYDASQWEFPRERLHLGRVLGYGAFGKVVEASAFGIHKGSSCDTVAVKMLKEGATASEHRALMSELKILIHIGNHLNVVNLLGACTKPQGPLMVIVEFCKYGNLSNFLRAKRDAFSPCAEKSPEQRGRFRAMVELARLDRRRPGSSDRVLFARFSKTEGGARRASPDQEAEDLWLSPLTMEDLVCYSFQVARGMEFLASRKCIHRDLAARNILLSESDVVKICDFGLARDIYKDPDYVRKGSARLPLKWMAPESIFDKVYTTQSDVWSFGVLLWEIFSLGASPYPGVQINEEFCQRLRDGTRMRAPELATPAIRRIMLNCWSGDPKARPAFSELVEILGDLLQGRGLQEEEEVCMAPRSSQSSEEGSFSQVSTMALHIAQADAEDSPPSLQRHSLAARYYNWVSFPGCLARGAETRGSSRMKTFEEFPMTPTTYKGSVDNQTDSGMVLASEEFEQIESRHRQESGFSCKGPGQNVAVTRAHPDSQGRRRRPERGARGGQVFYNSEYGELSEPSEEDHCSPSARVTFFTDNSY
T3 sequence (Q14289 whole entry): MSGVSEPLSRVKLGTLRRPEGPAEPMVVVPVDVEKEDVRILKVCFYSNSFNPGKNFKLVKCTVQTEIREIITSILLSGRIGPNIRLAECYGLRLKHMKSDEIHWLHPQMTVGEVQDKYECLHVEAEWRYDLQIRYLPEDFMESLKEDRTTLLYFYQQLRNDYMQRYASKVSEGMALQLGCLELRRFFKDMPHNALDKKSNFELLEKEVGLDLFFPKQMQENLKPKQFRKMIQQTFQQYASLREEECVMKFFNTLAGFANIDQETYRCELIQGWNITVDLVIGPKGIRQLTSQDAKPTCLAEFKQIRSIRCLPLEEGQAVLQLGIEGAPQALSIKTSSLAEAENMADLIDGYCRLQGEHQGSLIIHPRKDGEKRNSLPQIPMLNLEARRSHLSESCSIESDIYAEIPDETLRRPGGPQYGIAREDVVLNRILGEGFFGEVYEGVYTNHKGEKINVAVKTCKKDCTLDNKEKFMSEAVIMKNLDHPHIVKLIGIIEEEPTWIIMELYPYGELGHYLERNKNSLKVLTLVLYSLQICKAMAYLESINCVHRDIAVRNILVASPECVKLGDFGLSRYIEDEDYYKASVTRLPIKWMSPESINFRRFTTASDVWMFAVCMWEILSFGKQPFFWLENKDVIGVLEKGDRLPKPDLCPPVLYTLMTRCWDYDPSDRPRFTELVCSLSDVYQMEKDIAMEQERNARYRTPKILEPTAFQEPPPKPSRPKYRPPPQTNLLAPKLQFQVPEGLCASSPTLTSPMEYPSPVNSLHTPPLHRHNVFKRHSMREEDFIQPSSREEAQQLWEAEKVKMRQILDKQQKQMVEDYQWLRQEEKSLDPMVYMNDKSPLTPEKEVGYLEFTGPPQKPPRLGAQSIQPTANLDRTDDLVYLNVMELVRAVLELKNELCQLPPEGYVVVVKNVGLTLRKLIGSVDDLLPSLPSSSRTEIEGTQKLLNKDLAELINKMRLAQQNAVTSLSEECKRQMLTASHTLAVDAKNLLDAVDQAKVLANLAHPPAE

Row | IC50 [1] [µM] | IC50 [4] [µM] | IC50 [5] [µM] | Compound | other results
1 | ≤ 10 | – | – | O=C(c1ccccc1F)c1c[nH]c2nccc(-c3ccsc3)c12 [Compound P-0051] | IC50 [2]: ≤ 10 µM
2 | ≤ 10 | – | – | Oc1ccc(F)c(Cc2c[nH]c3ncc(Br)cc23)c1F [Compound P-0122, 3-(5-Bromo-1H-pyrrolo[2,3-b]pyridin-3-ylmethyl)-2,4-difluoro-phenol] | IC50 [3]: ≤ 10 µM
3 | – | ≤ 10 | ≤ 10 | O=C(c1cccc(O)c1F)c1c[nH]c2ncc(Br)cc12 [Compound P-0067, (5-bromo-1H-pyrrolo[2,3-b]pyridin-3-yl)-(2-fluoro-3-hydroxy-phenyl)-methanone] | –
4 | ≤ 10 | – | – | CS(=O)(=O)c1cccc(-c2ccnc3[nH]cc(C(=O)c4cc(F)ccc4F)c23)c1 [Compound P-0171] | –
5 | ≤ 10 | – | – | Cc1ccccc1C(=O)c1c[nH]c2nccc(-c3cccc(NS(C)(=O)=O)c3)c12 [Compound P-0109] | –
6 | ≤ 10 | – | – | Fc1cc(F)cc(-c2ccnc3[nH]cc(Sc4ccccn4)c23)c1 [Compound P-0106] | –
7 | ≤ 10 | – | – | Cc1ccc(F)cc1C(=O)c1c[nH]c2nccc(-c3cccc(NS(C)(=O)=O)c3)c12 [Compound P-0124] | –
8 | – | ≤ 10 | ≤ 10 | O=C(c1cccc(O)c1)c1c[nH]c2ncc(-c3cccs3)cc12 [Compound P-0196] | IC50 [7]: ≤ 10 µM; IC50 [6]: ≤ 10 µM
9 | ≤ 10 | – | ≤ 10 | OC(c1c(F)ccc(F)c1F)c1c[nH]c2ncc(-c3cccnc3)cc12 (stereo not drawn) [Compound P-0101] | –
10 | ≤ 10 | – | – | CS(=O)(=O)Nc1cccc(-c2ccnc3[nH]cc(C(=O)c4cc(F)ccc4F)c23)c1 [Compound P-0060] | –
11 | ≤ 10 | – | – | CC(=O)Nc1cccc(-c2ccnc3[nH]cc(C(=O)c4ccccc4F)c23)c1 [Compound P-0070] | –

More lines, now with the values behind:

Row | Compound | IC50 [1] [µM] | IC50 [4] [µM] | IC50 [5] [µM] | other results
12 | CS(=O)(=O)Nc1cccc(-c2cnc3[nH]cc(C(=O)c4cccc(O)c4F)c3c2)c1 [Compound P-0038, N-{3-[3-(2-Fluoro-3-hydroxy-benzoyl)-1H-pyrrolo[2,3-b]pyridin-5-yl]-phenyl}-methanesulfonamide] | – | ≤ 10 | ≤ 10 | –
13 | Cc1c(O)cccc1C(=O)c1c[nH]c2ncc(-c3cccnc3)cc12 [Compound P-0006, (3-Hydroxy-2-methyl-phenyl)-(5-pyridin-3-yl-1H-pyrrolo[2,3b]pyridin-3-yl)-methanone] | – | ≤ 10 | – | IC50 [2]: ≤ 10 µM; IC50 [6]: ≤ 10 µM
14 | O=C(c1cccc(O)c1F)c1c[nH]c2ncc(-c3cccnc3)cc12 [Compound P-0027, (2-Fluoro-3-hydroxy-phenyl)-(5-pyridin-3-yl-1H-pyrrolo[2,3-b]pyridin-3-yl)-methanone] | – | ≤ 10 | ≤ 10 | IC50 [6]: ≤ 10 µM
15 | CS(=O)(=O)c1cccc(-c2cnc3[nH]cc(C(O)c4c(F)ccc(F)c4F)c3c2)c1 (stereo not drawn) [Compound P-0020] | ≤ 10 | ≤ 10 | ≤ 10 | –
16 | NC(=O)c1cccc(-c2cnc3[nH]cc(C(=O)c4cccc(O)c4F)c3c2)c1 [Compound P-0034, 3-[3-(2-Fluoro-3-hydroxy-benzoyl)-1H-pyrrolo[2,3-b]pyridin-5-yl]benzamide] | ≤ 10 | ≤ 10 | ≤ 10 | IC50 [6]: ≤ 10 µM
17 | O=C(c1cccc(O)c1)c1c[nH]c2ncc(Nc3ccccc3)cc12 [Compound P-0025] | – | ≤ 10 | – | IC50 [6]: ≤ 10 µM
18 | O=C(c1cccc(O)c1F)c1c[nH]c2ncc(-c3ccccc3)cc12 [Compound P-0036, (2-fluoro-3-hydroxy-phenyl)-(5-phenyl-1H-pyrrolo[2,3-b]pyridin-3-yl)-methanone] | – | ≤ 10 | ≤ 10 | –
19 | Cc1ccccc1C(=O)c1c[nH]c2nccc(-c3cccc(N)c3)c12 [Compound P-0044] | ≤ 10 | – | – | –
20 | NC(=O)c1cccc(-c2ccnc3[nH]cc(C(=O)c4cc(F)ccc4F)c23)c1 [Compound P-0049] | ≤ 10 | – | – | –
21 | Nc1cccc(-c2cnc3[nH]cc(C(=O)c4cccc(O)c4F)c3c2)c1 [Compound P-0004, [5-(3-amino-phenyl)-1H-pyrrolo[2,3-b]pyridin-3-yl]-(2-fluoro-3-hydroxy-phenyl)methanone] | ≤ 10 | ≤ 10 | ≤ 10 | –
22 | NC(=O)c1ccc(-c2ccnc3[nH]cc(C(=O)c4ccccc4F)c23)cc1 [Compound P-0014] | ≤ 10 | – | – | IC50 [2]: ≤ 10 µM
23 | CS(=O)(=O)c1cccc(-c2cnc3[nH]cc(C(=O)c4cc(O)ccc4F)c3c2)c1 [Compound P-0008, (2-Fluoro-5-hydroxy-phenyl)-[5-(3-methanesulfonyl-phenyl)-1H-pyrrolo[2,3-b]pyridin-3-yl]-methanone] | – | ≤ 10 | ≤ 10 | IC50 [2]: ≤ 10 µM
24 | Nc1cccc(-c2ccnc3[nH]cc(C(=O)c4ccccc4F)c23)c1 [Compound P-0022] | ≤ 10 | – | – | IC50 [2]: ≤ 10 µM
25 | NC(=O)c1ccc(-c2ccnc3[nH]cc(C(=O)c4cc(F)ccc4F)c23)cc1 [Compound P-0013] | ≤ 10 | ≤ 10 | ≤ 10 | IC50 [6]: ≤ 10 µM
26 | CC(=O)Nc1cccc(-c2cnc3[nH]cc(C(=O)c4cccc(O)c4F)c3c2)c1 [Compound P-0035, N-{3-[3-(2-Fluoro-3-hydroxy-benzoyl)-1H-pyrrolo[2,3-b]pyridin-5-yl]-phenyl}-acetamide] | – | ≤ 10 | – | IC50 [6]: ≤ 10 µM
27 | O=C(c1cccc(O)c1)c1c[nH]c2nccc(-c3cc(F)cc(F)c3)c12 [Compound P-0039] | ≤ 10 | – | ≤ 10 | IC50 [7]: ≤ 10 µM
28 | Nc1cccc(-c2cnc3[nH]cc(C(=O)c4cc(O)ccc4F)c3c2)c1 [Compound P-0002] | – | ≤ 10 | ≤ 10 | IC50 [2]: ≤ 10 µM
29 | Nc1cccc(-c2ccnc3[nH]cc(C(=O)c4cc(F)ccc4F)c23)c1 [Compound P-0046] | ≤ 10 | – | – | IC50 [2]: ≤ 10 µM
30 | Cc1c(O)cccc1C(=O)c1c[nH]c2ncc(-c3ccccc3)cc12 [Compound P-0016, (3-Hydroxy-2-methyl-phenyl)-(5-phenyl-1H-pyrrolo[2,3b]pyridin-3-yl)-methanone] | – | ≤ 10 | ≤ 10 | IC50 [6]: ≤ 10 µM
